Results on 7 molecules are retold here after ChEMBL document CHEMBL6120963, “Discovery of Novel PROTAC SIRT6 Degraders with Potent Efficacy against Hepatocellular Carcinoma” (J Med Chem, 2024).

Activity calls are given as the source filed them. No cut-off for these calls is given here. A value given as a limit tells only on which side of the number the result lay.

The subject of data set [1] is SK-HEP1. As to the kind of experiment: Antitumor activity against human SK-HEP1 cells xenografted in BALB/c nude mouse at 25 mg/kg treated for 28 to 30 days relative to control. To be noted: time 28-30 day. The format is functional.
Data set [2] is described as follows: Toxicity in BALB/c nude mouse xenografted with human SK-HEP1 cells assessed as body weight loss at 25 mg/kg treated for 28 to 30 days. The format is organism-based. Conditions: in vivo, time 28-30 day.
Data set [3] is described as follows: Toxicity in BALB/c nude mouse xenografted with human SK-HEP1 cells assessed as pathological damage in heart at 25 mg/kg treated for 28 to 30 days by H and E staining based analysis. The format is organism-based. To be noted: in vivo, time 28-30 day.
Data set [4] is described as follows: Toxicity in BALB/c nude mouse xenografted with human SK-HEP1 cells assessed as pathological damage in liver at 25 mg/kg treated for 28 to 30 days by H and E staining based analysis. In kind it is organism-based. Conditions: in vivo, time 28-30 day.
A short description of data set [5]: Toxicity in BALB/c nude mouse xenografted with human SK-HEP1 cells assessed as pathological damage in spleen at 25 mg/kg treated for 28 to 30 days by H and E staining based analysis. In kind it is organism-based. Conditions: in vivo, time 28-30 day.
The nature of data set [6]: Toxicity in BALB/c nude mouse xenografted with human SK-HEP1 cells assessed as pathological damage in lungs at 25 mg/kg treated for 28 to 30 days by H and E staining based analysis. The format is organism-based. Conditions: in vivo, time 28-30 day.
A short description of data set [7]: Toxicity in BALB/c nude mouse xenografted with human SK-HEP1 cells assessed as pathological damage in kidney at 25 mg/kg treated for 28 to 30 days by H and E staining based analysis. In kind it is organism-based. Conditions: in vivo, time 28-30 day.
Data set [8] in a line: Toxicity in BALB/c nude mouse xenografted with human SK-HEP1 cells assessed as histopathological abnormalities in heart at 25 mg/kg treated for 28 to 30 days by H and E staining based analysis. In kind it is organism-based. To be noted: in vivo, time 28-30 day.
Data set [9] is described as follows: Toxicity in BALB/c nude mouse xenografted with human SK-HEP1 cells assessed as histopathological abnormalities in spleen at 25 mg/kg treated for 28 to 30 days by H and E staining based analysis. In kind it is organism-based. Conditions: in vivo, time 28-30 day.
Data set [10] is described as follows: Toxicity in BALB/c nude mouse xenografted with human SK-HEP1 cells assessed as histopathological abnormalities in lungs at 25 mg/kg treated for 28 to 30 days by H and E staining based analysis. In kind it is organism-based. To be noted: in vivo, time 28-30 day.
For data set [11], the target named is T1, Protein cereblon/NAD-dependent protein deacylase sirtuin-6 (Homo sapiens, UniProt Q8N6T7+Q96SW2). Put plainly: PROTAC activity at CRBN/SIRT6 in human SK-HEP1 cells assessed as induction of SIRT6 degradation at 200 nM incubated for 36 hrs by In-Cell ELISA relative to control. In kind it is cell-based.
Target sequence in this assay (Q8N6T7 2-355 limits assumed): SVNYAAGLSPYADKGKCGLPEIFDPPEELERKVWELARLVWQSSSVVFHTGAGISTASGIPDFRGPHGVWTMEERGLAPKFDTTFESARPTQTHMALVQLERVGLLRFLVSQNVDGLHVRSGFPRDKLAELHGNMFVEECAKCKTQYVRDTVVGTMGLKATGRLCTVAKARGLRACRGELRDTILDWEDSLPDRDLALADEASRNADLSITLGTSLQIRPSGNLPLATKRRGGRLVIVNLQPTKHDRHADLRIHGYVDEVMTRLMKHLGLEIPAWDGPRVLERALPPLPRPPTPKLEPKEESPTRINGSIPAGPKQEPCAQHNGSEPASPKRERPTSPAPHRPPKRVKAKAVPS
Target sequence in this assay (Q96SW2 whole entry partner): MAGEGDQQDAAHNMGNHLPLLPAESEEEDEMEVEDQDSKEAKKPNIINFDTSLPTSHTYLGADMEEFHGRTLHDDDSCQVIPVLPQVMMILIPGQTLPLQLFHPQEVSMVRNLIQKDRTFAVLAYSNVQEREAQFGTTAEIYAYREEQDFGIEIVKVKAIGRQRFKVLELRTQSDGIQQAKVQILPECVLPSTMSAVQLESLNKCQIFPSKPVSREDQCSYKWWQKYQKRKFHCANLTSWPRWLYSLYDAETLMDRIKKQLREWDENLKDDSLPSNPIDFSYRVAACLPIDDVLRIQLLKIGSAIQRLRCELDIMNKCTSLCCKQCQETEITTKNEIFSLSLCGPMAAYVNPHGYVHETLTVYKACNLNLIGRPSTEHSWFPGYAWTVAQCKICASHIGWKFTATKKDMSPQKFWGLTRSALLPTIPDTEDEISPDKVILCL
Data set [12] has as its target T1, Protein cereblon/NAD-dependent protein deacylase sirtuin-6. Put plainly: PROTAC activity at CRBN/SIRT6 in human SK-HEP1 cells assessed as induction of SIRT6 degradation at 2 uM incubated for 36 hrs by In-Cell ELISA relative to control. The format is cell-based.
Target sequence in this assay (Q8N6T7 2-355 limits assumed): as the sequence (Q8N6T7 2-355 limits assumed) above
Target sequence in this assay (Q96SW2 whole entry partner): as the sequence (Q96SW2 whole entry partner) above
For data set [13] the target is unchanged. Put plainly: PROTAC activity at CRBN/SIRT6 in human SK-HEP1 cells assessed as hook effect upto 5 uM incubated for 36 hrs by Western blot analysis. The format is cell-based.
Target sequence in this assay (Q8N6T7 2-355 limits assumed): as the sequence (Q8N6T7 2-355 limits assumed) above
Target sequence in this assay (Q96SW2 whole entry partner): as the sequence (Q96SW2 whole entry partner) above
Data set [14] concerns SK-HEP1. As to the kind of experiment: Induction of SIRT6 degradation in human SK-HEP1 cells at 0.5 uM incubated for 36 hrs by In-Cell ELISA relative to control. The format is cell-based.
For data set [15], the system named is SK-HEP1. As to the kind of experiment: Induction of SIRT6 degradation in human SK-HEP1 cells at 5 uM incubated for 36 hrs by In-Cell ELISA relative to control. In kind it is cell-based.
The target in data set [16] is NAD-dependent protein deacylase sirtuin-6 (Homo sapiens) (UniProt Q8N6T7). As to the kind of experiment: Inhibition of SIRT6 in human SK-HEP1 cells assessed as increase in H3K9Ac level incubated for 36 hrs by Western blot analysis. Conditions: dose 1.25-20 µM. The format is cell-based.
Data set [17] deals with SK-HEP1. Put plainly: Cytotoxicity against human SK-HEP1 cells incubated for 72 hrs by CCK8 assay. In kind it is functional, cell-based. To be noted: SK-HEP1, 72 h.
Data set [18] deals with T1, Protein cereblon/NAD-dependent protein deacylase sirtuin-6. As to the kind of experiment: PROTAC activity at CRBN/SIRT6 in human SK-HEP1 cells assessed as induction of SIRT6 degradation at 2 to 3 uM incubated for 36 hrs by Western blot analysis. In kind it is cell-based. Conditions: dose 2-3 µM.
Target sequence in this assay (Q8N6T7 2-355 limits assumed): as the sequence (Q8N6T7 2-355 limits assumed) above
Target sequence in this assay (Q96SW2 whole entry partner): as the sequence (Q96SW2 whole entry partner) above
Data set [19] shares this target. Put plainly: PROTAC activity at CRBN/SIRT6 in human SK-HEP1 cells assessed as induction of SIRT6 degradation incubated for 36 hrs by Western blot analysis. In kind it is cell-based. To be noted: for Activity: dose 0.02-5 µM.
For data set [20] the target is unchanged. As to the kind of experiment: PROTAC activity at CRBN/SIRT6 in human SK-HEP1 cells assessed as induction of SIRT6 degradation at 0.02 to 5 uM incubated for 36 hrs by Western blot analysis. In kind it is cell-based. Conditions: dose 0.02-5 µM.
Target sequence in this assay (Q8N6T7 2-355 limits assumed): as the sequence (Q8N6T7 2-355 limits assumed) above
Target sequence in this assay (Q96SW2 whole entry partner): as the sequence (Q96SW2 whole entry partner) above
For data set [21] the target is unchanged. As to the kind of experiment: PROTAC activity at CRBN/SIRT6 in human Huh-7 cells assessed as induction of SIRT6 degradation incubated for 36 hrs by Western blot analysis. The format is cell-based.
Data set [22] shares this target. As to the kind of experiment: PROTAC activity at CRBN/SIRT6 in human Huh-7 cells assessed as hook effect at 5 uM incubated for 36 hrs by Western blot analysis. In kind it is cell-based.
Target sequence in this assay (Q8N6T7 2-355 limits assumed): as the sequence (Q8N6T7 2-355 limits assumed) above
Target sequence in this assay (Q96SW2 whole entry partner): as the sequence (Q96SW2 whole entry partner) above
For data set [23] the target is unchanged. Put plainly: PROTAC activity at CRBN/SIRT6 in human SK-HEP1 cells assessed as induction of SIRT6 degradation upto 10 uM incubated for 36 hrs by Western blot analysis relative to control. In kind it is cell-based.
The target is the same in data set [24]. As to the kind of experiment: PROTAC activity at CRBN/SIRT6 in human Huh-7 cells assessed as induction of SIRT6 degradation upto 10 uM incubated for 36 hrs by Western blot analysis relative to control. The format is cell-based.
Data set [25] shares this target. As to the kind of experiment: PROTAC activity at CRBN/SIRT6 in human SK-HEP1 cells assessed as efficiency of SIRT6 degradation at 2 uM incubated for 36 hrs by Western blot analysis relative to control. In kind it is cell-based.

Sequence of NAD-dependent protein deacylase sirtuin-6 (Homo sapiens) (Q8N6T7 whole entry): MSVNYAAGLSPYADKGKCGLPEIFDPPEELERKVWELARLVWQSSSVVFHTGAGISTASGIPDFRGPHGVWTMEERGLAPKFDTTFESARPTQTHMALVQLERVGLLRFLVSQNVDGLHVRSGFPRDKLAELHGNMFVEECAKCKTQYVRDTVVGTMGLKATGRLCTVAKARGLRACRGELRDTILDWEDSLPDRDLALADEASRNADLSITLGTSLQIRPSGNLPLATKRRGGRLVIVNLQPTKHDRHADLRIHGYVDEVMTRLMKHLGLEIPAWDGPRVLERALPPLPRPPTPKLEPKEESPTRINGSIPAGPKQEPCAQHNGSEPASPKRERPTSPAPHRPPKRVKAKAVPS

`CNC(=O)c1cc(Oc2ccc(NC(=O)Nc3ccc(Cl)c(C(F)(F)F)c3)cc2)ccn1` [SORAFENIB] gave a T/C in the data set on SK-HEP1 [1] of 35.4%. Also, the Activity entry in [2] was “Toxic”; in data set [3], “Non-toxic”; in data set [4], “Non-toxic”; in data set [5] it was “Non-toxic”; in [6] it was “Non-toxic”; in [7] it was “Non-toxic”. Further, the Activity entry in data set [8], in data set [9] and in data set [10] was “Non-toxic” throughout.

Turning to `Nc1cc(N2CCN(CC3CCCN(c4cc5c(cc4F)C(=O)N(C4CCC(=O)NC4=O)C5=O)C3)CC2)ccc1[N+](=O)[O-]` (configuration not stated), the Activity in [11] was < 10%; in data set [12], 56.6%. In addition, the outcome in data set [13] was inactive.

As for `CN1CCN(c2ccc([N+](=O)[O-])c(N)c2)CC1`, the Activity amounted to 1.8% in the data set with SK-HEP1 [14] and 4.9% in the data set on SK-HEP1 [15]. For the same molecule, in [16], the inhibition entry was “Dose-dependent-effect”. Also, the midpoint of inhibition in the data set on SK-HEP1 [17], the IC50, lay at 4260 nM.

Take `Nc1cccc2c1C(=O)N(C1CCC(=O)NC1=O)C2=O` (configuration not stated): the results for the Activity in the data set on SK-HEP1 [14] and with SK-HEP1 [15] were 6.5% and 10.9%, respectively.

Turning to `Nc1cc(N2CCN(CCCC3CCN(c4cc5c(cc4F)C(=O)N(C4CCC(=O)NC4=O)C5=O)CC3)CC2)ccc1[N+](=O)[O-]` (configuration not stated), the Activity in [11] was 90.3%; in data set [12], 94.6%; in [21] (dose 0.008-5 µM) it was “Dose-dependent-effect; But Reduced Degradation Efficiency Observed”. The outcome in data set [18], in data set [20] and in data set [22] was Active. Also, the figures for the DC50 in [19] and in data set [21] were 50.4 nM and 263 nM, respectively. For the same molecule, the results for the Emax in data set [23] and in [24] were 97.7% and 81.5%, respectively. In the data set with SK-HEP1 [17], the midpoint of inhibition, the IC50, lay at 1640 nM.

As to `Nc1cc(N2CCN(CC3CCN(c4ccc5c(c4)C(=O)N(C4CCC(=O)NC4=O)C5=O)CC3)CC2)ccc1[N+](=O)[O-]` (configuration not stated), the Activity in [11] was 85.9%; in data set [12] it was 93.6%; in data set [19], “Dose-dependent-effect”; in [25] it was > 95%. In addition, the outcome in data set [18] was Active. Besides, the DC50 in data set [19] came to 106 nM; in data set [21], 239 nM. Also, the outcome in data set [13] was inactive. The values for the Emax in [23] and in [24] were 94.8% and 90.6%, respectively. The molecule further registered an IC50 in the data set on SK-HEP1 [17] of 1750 nM.

In the case of `Nc1cc(N2CCN(CC3CCN(c4ccc5c(c4)C(=O)N(C4CCC(=O)NC4=O)C5=O)C3)CC2)ccc1[N+](=O)[O-]` (configuration not stated), the Activity in [11] was 11.9%; in [12], 98.2%; in data set [19] it was “Dose-dependent-effect”; in [25], > 95%. Besides, the outcome in data set [18] was Active. Besides, the DC50 in data set [19] was determined as 91.5 nM; in data set [21] it was 360 nM. In addition, in data set [13], the result was inactive. For the same molecule, the Emax in [23] was determined as 96.2%; in [24], 78.5%. Besides, in the data set on SK-HEP1 [17], the half-inhibitory concentration (IC50) worked out at 2190 nM.
